Reference: paper PMC4503722, “Novel Phenotypic Outcomes Identified for a Public Collection of Approved Drugs from a Publicly Accessible Panel of Assays” (PLoS ONE, 2015)
pIC50: −log10 of the molar value. Read-outs that look alike come from different tables or passages of the source.

Key:
Colo320 = assay: cells; format: cell-based; settings: for pIC50: read-out: Basal_Viability ATP Colo 320 summarized IC50
SW480 = assay: cells; format: cell-based; settings: for pIC50: read-out: Basal_Viability ATP SW480 summarized IC50
SNU-C1 = assay: cells; format: cell-based; settings: for pIC50: read-out: Basal_Viability ATP SNU-C1 summarized IC50
HT-29 = assay: cells; format: cell-based; settings: for pIC50: read-out: Basal_Viability ATP HT-29 summarized IC50
HCT116 = assay: cells; format: cell-based; settings: for pIC50: read-out: Basal_Viability ATP HCT116 summarized IC50
HeLa cells = assay: cells; format: cell-based;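 for Hela CellCycMod PI 4N summarized IC50: value tracks stimulation of 4N DNA content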
RKO = assay: cells; format: cell-based; settings: for pIC50: read-out: Basal_Viability ATP RKO summarized IC50
[1] = tested on: HCT116 cells treated with a GSK3β inhibitor; assay: cells; format: cell-based; settings: for pIC50: read-out: GSK3b inh pretreated_Viability ATP HCT116 summarized IC50; for IC50/EC50, GSK3b inh pretreated_Viability ATP HCT116 (assay number 26): GSK3b inh pretreated
DLD-1 = assay: cells; format: cell-based; settings: for pIC50: read-out: Basal_Viability ATP DLD-1 summarized IC50
[2] = tested on: endothelial tube formation in co-cultures of ECFCs and ADSCs treated with VEGF; assay: cells; format: cell-based, human
[3] = tested on: ECFC/ADSC co-culture cell nuclei number
[4] = assay number 26, GSK3b inhibitor pretreated

SMILES: O=C(O)CCc1nc2ccccc2[nH]1 [NCGC00013414-04]
- pIC50 (Colo320; assay number 27, basal): < 4.70
- pIC50 (SW480; assay number 24, basal): < 4.70
- pIC50 (SNU-C1; assay number 30, basal): < 4.70
- pIC50 (HT-29; assay number 28, basal): < 4.70
- pIC50 (HCT116; assay number 25, basal): < 4.70
- pIC50 (HeLa cells; assay number 14, 2N, read-out: Hela CellCycMod PI 2N summarized IC50): < 5.00
- pIC50 (HeLa cells; assay number 15, S phase, read-out: Hela CellCycMod PI S Phase summarized IC50): < 5.00
- pIC50 (HeLa cells; assay number 16, 4N, read-out: Hela CellCycMod PI 4N summarized IC50): < 5.00
- pIC50 (HeLa cells; assay number 17, MI, read-out: Hela CellCycMod PI MI summarized IC50): < 5.00
- pIC50 (HeLa cells; assay number 18, cell number, read-out: Hela CellCycMod PI Cell Number summarized IC50): < 5.00
- pIC50 (RKO; assay number 29, basal): < 4.70
- pIC50 [1, 4]: 5.66
- pIC50 (DLD-1; assay number 23, basal): 5.62

SMILES: CN1CCC(=C2c3ccccc3C=Cc3ccccc32)CC1 [NCGC00015252-12]
- Basal_Viability ATP Colo 320 IC50/EC50 (Colo320; assay number 27, basal): > 20 µM
- Basal_Viability ATP SW480 IC50/EC50 (SW480; assay number 24, basal): 5.9167 µM
- Basal_Viability ATP SNU-C1 IC50/EC50 (SNU-C1; assay number 30, basal): 10.7827 µM
- Basal_Viability ATP HT-29 IC50/EC50 (HT-29; assay number 28, basal): > 20 µM
- Basal_Viability ATP HCT116 IC50/EC50 (HCT116; assay number 25, basal): > 20 µM
- Basal_Viability ATP RKO IC50/EC50 (RKO; assay number 29, basal): 11.2853 µM
- GSK3b inh pretreated_Viability ATP HCT116 IC50/EC50 [1, 4]: > 20 µM
- Basal_Viability ATP DLD-1 IC50/EC50 (DLD-1; assay number 23, basal): > 20 µM

SMILES: N#CC(C#N)=Cc1ccc(O)c(O)c1 [NCGC00016043-08]
- IC50/EC50, Basal_Viability ATP Colo 320 (assay number 27) (Colo320; basal): 6.7406 µM
- IC50/EC50, Basal_Viability ATP SW480 (assay number 24) (SW480; basal): > 20 µM
- IC50/EC50, Basal_Viability ATP SNU-C1 (assay number 30) (SNU-C1; basal): > 20 µM
- IC50/EC50, Basal_Viability ATP HT-29 (assay number 28) (HT-29; basal): > 20 µM
- IC50/EC50, Basal_Viability ATP HCT116 (assay number 25) (HCT116; basal): > 20 µM
- IC50/EC50, Basal_Viability ATP RKO (assay number 29) (RKO; basal): 3.7756 µM
- IC50/EC50, GSK3b inh pretreated_Viability ATP HCT116 (assay number 26) [1]: > 20 µM
- IC50/EC50, Basal_Viability ATP DLD-1 (assay number 23) (DLD-1; basal): > 20 µM

SMILES: Cc1nnc(NS(=O)(=O)c2ccc(N)cc2)s1 [NCGC00016407-08]
- pIC50 (Colo320; assay number 27, basal): < 4.70
- pIC50 (SW480; assay number 24, basal): < 4.70
- pIC50 (SNU-C1; assay number 30, basal): < 4.70
- pIC50 (HT-29; assay number 28, basal): < 4.70
- pIC50 (HCT116; assay number 25, basal): < 4.70
- pIC50 (RKO; assay number 29, basal): < 4.70
- pIC50 [1, 4]: < 4.70
- pIC50 (DLD-1; assay number 23, basal): < 4.70

SMILES: O=C1C(=O)c2ccccc2C(O)=C1C1CCC(c2ccc(Cl)cc2)CC1 (stereo not shown) [NCGC00016961-06]
- Basal_Viability ATP Colo 320 IC50/EC50 (Colo320; assay number 27, basal): 0.1764 µM
- Basal_Viability ATP SW480 IC50/EC50 (SW480; assay number 24, basal): 0.0946 µM
- Basal_Viability ATP SNU-C1 IC50/EC50 (SNU-C1; assay number 30, basal): 0.3675 µM
- VEGF_ADSC\ECFC Angio CD31 TubeArea IC50/EC50 [2]: 5.1845 µM
- VEGF_ADSC\ECFC Angio Hoechst NucArea IC50/EC50 [3]: > 10 µM
- Basal_Viability ATP HT-29 IC50/EC50 (HT-29; assay number 28, basal): 0.4112 µM
- Basal_Viability ATP HCT116 IC50/EC50 (HCT116; assay number 25, basal): 0.1384 µM
- Hela CellCycMod PI 2N IC50/EC50 (HeLa cells; assay number 14, 2N): > 10 µM
- Hela CellCycMod PI 4N IC50/EC50 (HeLa cells; assay number 16, 4N): > 10 µM
- Hela CellCycMod PI MI IC50/EC50 (HeLa cells; assay number 17, MI): > 10 µM
- Hela CellCycMod PI Cell Number IC50/EC50 (HeLa cells; assay number 18, cell number): > 10 µM
- Basal_Viability ATP RKO IC50/EC50 (RKO; assay number 29, basal): 0.1142 µM
- Basal_Viability ATP DLD-1 IC50/EC50 (DLD-1; assay number 23, basal): 0.0838 µM

SMILES: C1CCC(C(CC2CCCCN2)C2CCCCC2)CC1.O=C(O)/C=C\C(=O)O (stereo not shown) [NCGC00018261-06]
- Basal_Viability ATP Colo 320 IC50/EC50 (Colo320): 8.8632 µM
- Basal_Viability ATP SW480 IC50/EC50 (SW480): 5.7603 µM
- Basal_Viability ATP SNU-C1 IC50/EC50 (SNU-C1): 2.48 µM
- Basal_Viability ATP HT-29 IC50/EC50 (HT-29): 6.8652 µM
- Basal_Viability ATP HCT116 IC50/EC50 (HCT116): > 20 µM
- Basal_Viability ATP RKO IC50/EC50 (RKO): 7.8491 µM
- GSK3b inh pretreated_Viability ATP HCT116 IC50/EC50 [1]: 7.4207 µM
- Basal_Viability ATP DLD-1 IC50/EC50 (DLD-1): > 20 µM

SMILES: CCCCCCCCCCCCCCCCOP(=O)([O-])OCC[N+](C)(C)C [NCGC00095169-05]
- Basal_Viability ATP Colo 320 IC50/EC50 (Colo320; assay number 27, basal): 1.49 µM
- Basal_Viability ATP SW480 IC50/EC50 (SW480; assay number 24, basal): 0.4782 µM
- Basal_Viability ATP SNU-C1 IC50/EC50 (SNU-C1; assay number 30, basal): 0.9649 µM
- Basal_Viability ATP HT-29 IC50/EC50 (HT-29; assay number 28, basal): 1.955 µM
- Basal_Viability ATP HCT116 IC50/EC50 (HCT116; assay number 25, basal): 3.393 µM
- Basal_Viability ATP RKO IC50/EC50 (RKO; assay number 29, basal): 0.4372 µM
- GSK3b inh pretreated_Viability ATP HCT116 IC50/EC50 [1, 4]: 1.476 µM
- Basal_Viability ATP DLD-1 IC50/EC50 (DLD-1; assay number 23, basal): 1.23 µM

SMILES: Nc1ccc(C(=O)Nc2ccccc2N)cc1 [NCGC00160373-02]
- IC50/EC50, Basal_Viability ATP Colo 320 (assay number 27) (Colo320; basal): > 20 µM
- IC50/EC50, Basal_Viability ATP SW480 (assay number 24) (SW480; basal): > 20 µM
- IC50/EC50, Basal_Viability ATP SNU-C1 (assay number 30) (SNU-C1; basal): > 20 µM
- IC50/EC50, Basal_Viability ATP HT-29 (assay number 28) (HT-29; basal): > 20 µM
- IC50/EC50, Basal_Viability ATP HCT116 (assay number 25) (HCT116; basal): > 6.6667 µM
- IC50/EC50, Basal_Viability ATP RKO (assay number 29) (RKO; basal): > 20 µM
- IC50/EC50, GSK3b inh pretreated_Viability ATP HCT116 (assay number 26) [1]: 12.8536 µM
- IC50/EC50, Basal_Viability ATP DLD-1 (assay number 23) (DLD-1; basal): > 20 µM

SMILES: COc1ccc(CN2CCN(C(c3ccc(F)cc3)c3ccc(F)cc3)CC2)c(OC)c1OC.Cl.Cl [NCGC00164543-02]
- Basal_Viability ATP Colo 320 IC50/EC50 (Colo320; assay number 27): 2.817 µM
- Basal_Viability ATP SW480 IC50/EC50 (SW480; assay number 24): 3.3247 µM
- Basal_Viability ATP SNU-C1 IC50/EC50 (SNU-C1; assay number 30): 0.4428 µM
- Basal_Viability ATP HT-29 IC50/EC50 (HT-29; assay number 28): 2.926 µM
- Basal_Viability ATP HCT116 IC50/EC50 (HCT116; assay number 25, basal): 1.7018 µM
- Basal_Viability ATP RKO IC50/EC50 (RKO; assay number 29): 3.6952 µM
- GSK3b inh pretreated_Viability ATP HCT116 IC50/EC50 [1, 4]: 2.7677 µM
- Basal_Viability ATP DLD-1 IC50/EC50 (DLD-1; assay number 23): 3.1331 µM
